Results published in US20230057621A1 (priority 2019, published 2023).

How the values were obtained:
Assay type in all cases: cell-based
[1] = system: pseudorabies virus
[2] = system: EB virus
[3] = system: pseudorabies virus; remark: listed apart in the source

Compound: CC(C)(C)C(=O)OCOP(=O)(COCCn1cnc2c(N)ncnc21)OCOC(=O)C(C)(C)C [adefovir dipivoxil]
- EC50 for the inhibition against pseudorabies virus proliferation [1]: reaches nanomolar level
- inhibitory effect on pseudorabies virus replication and proliferation [1]: can significantly inhibit the replication and proliferation of pseudorabies virus
- inhibitory activity against EB virus replication [2]: no inhibitory activity against EB virus
- inhibition of the release of pseudorabies virus from cells [3]: can significantly inhibit the release of pseudorabies virus from cells
